Measurements: ChEMBL document CHEMBL4196049, “β,γ-diamino acids as building blocks for new analogues of Gramicidin S: Synthesis and biological activity” (Eur J Med Chem, 2018)
In brackets after ≈: the same amount, converted by molar mass. Non-standard residues stand in square brackets, D forms with d. Residues, ends and D or L forms follow the SMILES beside them. Orn = NCCC[C@H](N)C(=O)O

Tests used:
Escherichia coli = assay: Antibacterial activity against Escherichia coli CIP 53.126 ATCC 8739 after 48 hrs by two-fold serial dilution method; assay type: functional; details: ATCC 8739 = CIP 53.126, 48 h
Pseudomonas aeruginosa = assay: Antibacterial activity against Pseudomonas aeruginosa CIP 82.118 ATCC 9027 after 48 hrs by two-fold serial dilution method; assay type: functional; details: CIP 82.118 ATCC 9027, 48 h
Staphylococcus aureus = assay: Antibacterial activity against Staphylococcus aureus subsp. aureus CIP 4.83 ATCC 6538 after 48 hrs by two-fold serial dilution method; assay type: functional; details: CIP 4.83 ATCC 6538, 48 h
Bacillus subtilis = assay: Antibacterial activity against Bacillus subtilis subsp. subtilis CIP 52.65 after 48 hrs by two-fold serial dilution method; assay type: functional; details: CIP 52.65, 48 h
Enterococcus faecalis [1] = assay: Antibacterial activity against Enterococcus faecalis CIP 103015 after 48 hrs by two-fold serial dilution method; assay type: functional; details: CIP 103015, 48 h
Enterococcus faecalis [2] = assay: Antibacterial activity against Enterococcus faecalis CIP 103214 after 48 hrs by two-fold serial dilution method; assay type: functional; details: CIP 103214, 48 h
Bacillus cereus = assay: Antibacterial activity against Bacillus cereus CIP 66.24 after 48 hrs by two-fold serial dilution method; assay type: functional; details: CIP 66.24, 48 h
Streptococcus salivarius = assay: Antibacterial activity against Streptococcus salivarius CIP 102503 after 48 hrs by two-fold serial dilution method; assay type: functional; details: CIP 102503, 48 h
Enterococcus faecium = assay: Antibacterial activity against Enterococcus faecium CIP 103014 after 48 hrs by two-fold serial dilution method; assay type: functional; details: CIP 103014, 48 h
[3] = Hemolytic activity in human erythrocytes at 50 ug/ml after 30 mins relative to control; assay type: ADME, cell-based, Erythrocyte; details: read-out: Activity
[4] = Hemolytic activity in human erythrocytes at 100 ug/ml after 30 mins relative to control; assay type: ADME, cell-based, Erythrocyte; details: read-out: Activity

SMILES | MIC (Escherichia coli) [µg/mL] | MIC (Pseudomonas aeruginosa) [µg/mL] | MIC (Staphylococcus aureus) [µg/mL] | MIC (Bacillus subtilis) [µg/mL] | MIC (Enterococcus faecalis [1]) [µg/mL] | MIC (Enterococcus faecalis [2]) [µg/mL] | MIC (Bacillus cereus) [µg/mL] | MIC (Streptococcus salivarius) [µg/mL] | MIC (Enterococcus faecium) [µg/mL] | hemolysis at 0.5 h, 50 ug/ml [3] [%] | hemolysis at 0.5 h, 100 ug/ml [4] [%]
CC(C)C[C@@H]1NC(=O)[C@H](CCCN)NC(=O)[C@H](C(C)C)NC(=O)[C@@H]2CCCN2C(=O)[C@@H](Cc2ccccc2)NC(=O)[C@H](CC(C)C)NC(=O)[C@H](CCCN)NC(=O)[C@H](C(C)C)NC(=O)[C@@H]2CCCN2C(=O)[C@@H](Cc2ccccc2)NC1=O (cyclo(V[Orn]L[dF]PV[Orn]L[dF]P)) | 12.5 (≈ 11 µM) | ≥ 100 | 3.12 (≈ 2.74 µM) | 3.12 (≈ 2.74 µM) | 3.12 (≈ 2.74 µM) | 3.12 (≈ 2.74 µM) | 6.25 (≈ 5.48 µM) | 3.12 (≈ 2.74 µM) | 3.12 (≈ 2.74 µM) | – | –
CC(C)C[C@@H]1NC(=O)[C@H](CCCN)NC(=O)[C@H](C(C)C)NC(=O)[C@@H]2CCCN2C(=O)[C@@H](Cc2ccccc2)NC(=O)[C@H](CC(C)C)NC(=O)[C@H](CCCN)NC(=O)[C@H](C(C)C)NC(=O)[C@@H]2CCCN2C(=O)[C@@H](Cc2ccccc2)NC1=O (cyclo(L[dF]PV[Orn]L[dF]PV[Orn])) | – | – | – | – | – | – | – | – | – | 74 | 83
